Data published in paper PMC11762167, “G Protein-Coupled Receptor 17 Inhibits Glucagon-like Peptide-1 Secretion via a Gi/o-Dependent Mechanism in Enteroendocrine Cells” (Biomolecules, 2024).

Target: hGPR17L (Homo sapiens, UniProt Q13304)
Experiment: Endpoint cAMP (HTRF) in GLUTag cells expressing hGPR17L
Format: cell-based
Parameters: host or cells: GLUTag cells (murine enteroendocrine line), adenoviral transduction; Mean Diff. of cAMP, MDL29,951 vs FSK alone (Tukey): unit not given here
Settings: for Predicted (LS) mean diff.: Fig 2B, Forskolin; for Mean Diff. of cAMP, MDL29,951 vs FSK alone (Tukey): hGPR17L
Protocol: GLUTag cells were maintained in Dulbecco’s Modified Eagle Medium (DMEM) supplemented with 10% fetal bovine serum and 1% penicillin–streptomycin in a humidified incubator at 37 °C and 5% CO2. For adenovirus transduction, GLUTag cells were seeded into poly-D-lysine coated 96-well plates or 4-chamber slides. The next day, cells were transduced with adenoviruses (100–1250 viral particles per cell at time of seeding) as indicated. After 24–30 h, adenovirus-containing media was changed to serum-free growth media for overnight serum starvation. The following day, GLUTag cells were used for cAMP or calcium signaling assays, GLP-1 secretion assays, or immunostaining and imaging.
Endpoint cAMP measurements were conducted as follows. GLUTag cells were seeded into poly-D-lysine-coated 96-well plates and transduced with adenovirus as specified above and then tested for cAMP signaling. Medium was removed and cells were washed with cAMP stimulation buffer (Hanks’ balanced salt solution (HBSS), 20 mM HEPES, pH 7.4) and then incubated in cAMP stimulation buffer for 30 min at 37 °C and 5% CO2. Cells were then treated for 30 min with agonist and forskolin in the presence of 500 µM IBMX at 37 °C and 5% CO2. Stimulation buffer was then decanted, and cAMP lysis buffer (50 mM HEPES, 10 mM CaCl2, 0.35% Triton X-100, and 500 µM IBMX) was added and shaken at 700 rpm for 1 h. Lysate was transferred to a 384-well plate, and the cAMP levels were quantified using the Cisbio HTRF cAMP (Gi kit; Revvity, Waltham, MA, USA) according to the manufacturer’s protocol.

Chain of hGPR17L (Q13304 whole entry): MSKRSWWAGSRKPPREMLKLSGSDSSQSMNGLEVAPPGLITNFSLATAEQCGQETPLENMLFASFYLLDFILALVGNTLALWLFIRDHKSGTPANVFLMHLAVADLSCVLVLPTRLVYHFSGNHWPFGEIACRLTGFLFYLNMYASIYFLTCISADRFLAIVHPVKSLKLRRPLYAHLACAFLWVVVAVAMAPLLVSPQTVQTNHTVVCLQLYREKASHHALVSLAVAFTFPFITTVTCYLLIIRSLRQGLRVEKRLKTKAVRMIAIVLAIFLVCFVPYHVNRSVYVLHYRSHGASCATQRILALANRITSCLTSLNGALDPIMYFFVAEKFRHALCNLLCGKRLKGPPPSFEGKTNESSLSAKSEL

## O=C(O)CCc1c(C(=O)O)[nH]c2cc(Cl)cc(Cl)c12 [MDL29,951]
Log [MDL29,951] (M) -5.2 vs. Vehicle, +100 ng/mL PTX
  Predicted (LS) mean diff.: 8.85
Log [MDL29,951] (M) -5.2 vs. Vehicle, +Vehicle
  Predicted (LS) mean diff.: -22.36
Log [MDL29,951] (M) -5.8 vs. Vehicle, +100 nM YM-254890
  Predicted (LS) mean diff.: -44.26
Log [MDL29,951] (M) -5.8 vs. Vehicle, +100 ng/mL PTX
  Predicted (LS) mean diff.: -1.585
Log [MDL29,951] (M) -5.8 vs. Vehicle, +Vehicle
  Predicted (LS) mean diff.: -32.92
Log [MDL29,951] (M) -6.4 vs. Vehicle, +100 nM YM-254890
  Predicted (LS) mean diff.: -39.29
Log [MDL29,951] (M) -6.4 vs. Vehicle, +100 ng/mL PTX
  Predicted (LS) mean diff.: -7.715
Log [MDL29,951] (M) -6.4 vs. Vehicle, +Vehicle
  Predicted (LS) mean diff.: -33.45
Log [MDL29,951] (M) -7.0 vs. Vehicle, +100 nM YM-254890
  Predicted (LS) mean diff.: -30.32
Log [MDL29,951] (M) -7.0 vs. Vehicle, +100 ng/mL PTX
  Predicted (LS) mean diff.: -2.207
Log [MDL29,951] (M) -7.0 vs. Vehicle, +Vehicle
  Predicted (LS) mean diff.: -27.4
Log [MDL29,951] (M) -7.6 vs. Vehicle, +100 nM YM-254890
  Predicted (LS) mean diff.: -16.56
Log [MDL29,951] (M) -7.6 vs. Vehicle, +100 ng/mL PTX
  Predicted (LS) mean diff.: -4.54
Log [MDL29,951] (M) -7.6 vs. Vehicle, +Vehicle
  Predicted (LS) mean diff.: -8.48
Log [MDL29,951] (M) -8.2 vs. Vehicle, +100 nM YM-254890
  Predicted (LS) mean diff.: -9.253
Log [MDL29,951] (M) -8.2 vs. Vehicle, +100 ng/mL PTX
  Predicted (LS) mean diff.: 0.26
Log [MDL29,951] (M) -8.2 vs. Vehicle, +Vehicle
  Predicted (LS) mean diff.: 3.753
Log [MDL29,951] (M) -8.8 vs. Vehicle, +100 nM YM-254890
  Predicted (LS) mean diff.: -3.55
Log [MDL29,951] (M) -8.8 vs. Vehicle, +100 ng/mL PTX
  Predicted (LS) mean diff.: -5.335
Log [MDL29,951] (M) -8.8 vs. Vehicle, +Vehicle
  Predicted (LS) mean diff.: 6.603
Log [MDL29,951] (M) -9.4 vs. Vehicle, +100 nM YM-254890
  Predicted (LS) mean diff.: 1.64
Log [MDL29,951] (M) -9.4 vs. Vehicle, +100 ng/mL PTX
  Predicted (LS) mean diff.: 2.945
Log [MDL29,951] (M) -9.4 vs. Vehicle, +Vehicle
  Predicted (LS) mean diff.: 8.423
At 390 nM MDL29,951, 10 µM forskolin
  maximum inhibition of forskolin-stimulated cAMP: 37 ± 5.1%
Log [MDL29,951] (M) -4.0
  Mean Diff. of cAMP, MDL29,951 vs FSK alone (Tukey): -0.306
Log [MDL29,951] (M) -4.6
  Mean Diff. of cAMP, MDL29,951 vs FSK alone (Tukey): -0.593
Log [MDL29,951] (M) -5.2
  Mean Diff. of cAMP, MDL29,951 vs FSK alone (Tukey): -1.138
Log [MDL29,951] (M) -5.8
  Mean Diff. of cAMP, MDL29,951 vs FSK alone (Tukey): -1.598
Log [MDL29,951] (M) -6.4
  Mean Diff. of cAMP, MDL29,951 vs FSK alone (Tukey): -1.654
Log [MDL29,951] (M) -7.0
  Mean Diff. of cAMP, MDL29,951 vs FSK alone (Tukey): -1.376
Log [MDL29,951] (M) -7.6
  Mean Diff. of cAMP, MDL29,951 vs FSK alone (Tukey): -0.7263
Log [MDL29,951] (M) -8.2
  Mean Diff. of cAMP, MDL29,951 vs FSK alone (Tukey): -0.237
Log [MDL29,951] (M) -8.8
  Mean Diff. of cAMP, MDL29,951 vs FSK alone (Tukey): -0.04325
Log [MDL29,951] (M) -9.4
  Mean Diff. of cAMP, MDL29,951 vs FSK alone (Tukey): -0.0985
hGPR17L-WT (1250), log [MDL29,951] (M) -4.0 vs. Vehicle, Forskolin stimulation, Figure 4B
  Mean Diff. (Tukey's multiple comparisons test), cAMP, Row 10 vs. Row 11: -9.193
hGPR17L-WT (1250), log [MDL29,951] (M) -4.6 vs. Vehicle, Forskolin stimulation, Figure 4B
  Mean Diff. (Tukey's multiple comparisons test), cAMP, Row 9 vs. Row 11: -17.14
hGPR17L-WT (1250), log [MDL29,951] (M) -5.2 vs. Vehicle, Forskolin stimulation, Figure 4B
  Mean Diff. (Tukey's multiple comparisons test), cAMP, Row 8 vs. Row 11: -27.93
hGPR17L-WT (1250), log [MDL29,951] (M) -5.8 vs. Vehicle, Forskolin stimulation, Figure 4B
  Mean Diff. (Tukey's multiple comparisons test), cAMP, Row 7 vs. Row 11: -39.19
hGPR17L-WT (1250), log [MDL29,951] (M) -6.4 vs. Vehicle, Forskolin stimulation, Figure 4B
  Mean Diff. (Tukey's multiple comparisons test), cAMP, Row 6 vs. Row 11: -41.54
hGPR17L-WT (1250), log [MDL29,951] (M) -7.0 vs. Vehicle, Forskolin stimulation, Figure 4B
  Mean Diff. (Tukey's multiple comparisons test), cAMP, Row 5 vs. Row 11: -35.32
hGPR17L-WT (1250), log [MDL29,951] (M) -7.6 vs. Vehicle, Forskolin stimulation, Figure 4B
  Mean Diff. (Tukey's multiple comparisons test), cAMP, Row 4 vs. Row 11: -21.64
hGPR17L-WT (1250), log [MDL29,951] (M) -8.2 vs. Vehicle, Forskolin stimulation, Figure 4B
  Mean Diff. (Tukey's multiple comparisons test), cAMP, Row 3 vs. Row 11: -11.12
hGPR17L-WT (1250), log [MDL29,951] (M) -8.8 vs. Vehicle, Forskolin stimulation, Figure 4B
  Mean Diff. (Tukey's multiple comparisons test), cAMP, Row 2 vs. Row 11: -5.06
hGPR17L-WT (1250), log [MDL29,951] (M) -9.4 vs. Vehicle, Forskolin stimulation, Figure 4B
  Mean Diff. (Tukey's multiple comparisons test), cAMP, Row 1 vs. Row 11: -7.193
